# Read-outs that look alike come from different tables or passages of the source.
# Tests used:
# [1] = target: T1, HDAC7 (Homo sapiens, UniProt Q8WUI4); test: HDAC biochemical activity measurement (fluorescent substrate deacetylation);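 also: fluorogenic deacetylation assay using acetyl-lysine substrate at 20 µM, enzyme and compound incubated 30 min at 37 °C, then developer added, fluorescence read at 360/460 nm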; settings: HDAC7; 37° C. 30 minutes
# T1 sequence (Q8WUI4 1-952): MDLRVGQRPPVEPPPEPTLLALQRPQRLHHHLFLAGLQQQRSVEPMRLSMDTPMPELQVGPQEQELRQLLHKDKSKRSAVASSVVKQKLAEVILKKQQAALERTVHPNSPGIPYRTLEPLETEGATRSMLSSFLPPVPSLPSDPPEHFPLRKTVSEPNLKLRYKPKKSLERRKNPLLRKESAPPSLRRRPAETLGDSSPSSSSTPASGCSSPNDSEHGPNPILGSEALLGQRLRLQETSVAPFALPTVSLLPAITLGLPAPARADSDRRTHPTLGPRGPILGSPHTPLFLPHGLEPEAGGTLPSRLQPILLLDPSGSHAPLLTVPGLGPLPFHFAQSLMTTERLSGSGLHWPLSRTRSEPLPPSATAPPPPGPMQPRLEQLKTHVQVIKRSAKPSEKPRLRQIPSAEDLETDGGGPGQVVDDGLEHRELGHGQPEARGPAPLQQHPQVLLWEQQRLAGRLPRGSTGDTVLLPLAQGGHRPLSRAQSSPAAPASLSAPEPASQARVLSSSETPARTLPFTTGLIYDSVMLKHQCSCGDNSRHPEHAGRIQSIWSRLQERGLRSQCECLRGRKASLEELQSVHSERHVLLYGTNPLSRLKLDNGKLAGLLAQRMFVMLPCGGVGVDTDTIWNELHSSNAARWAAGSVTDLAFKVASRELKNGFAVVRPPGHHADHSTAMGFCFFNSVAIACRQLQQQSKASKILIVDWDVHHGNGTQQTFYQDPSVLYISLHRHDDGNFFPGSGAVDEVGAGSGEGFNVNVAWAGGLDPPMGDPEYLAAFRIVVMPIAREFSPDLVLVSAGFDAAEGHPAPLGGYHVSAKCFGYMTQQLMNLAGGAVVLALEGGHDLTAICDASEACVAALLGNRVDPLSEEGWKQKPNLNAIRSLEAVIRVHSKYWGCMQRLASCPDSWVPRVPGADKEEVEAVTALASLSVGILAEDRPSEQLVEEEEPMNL
# [2] = system: A549 (human lung cancer cells); test: MTT cancer cell growth inhibition; type: cell-based; settings: Homo sapiens, A549, 72 h, MTT, 72 hours incubation, read-out: GI50 A54
# Outline: (§1)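 GI50 values come from viability measured by MTT reduction at 570 nm. Plated overnight at 1500 cells per well, cultures received drug in three parallel wells across 10^−5–10^−10 M final and were incubated 72 h at 37° C. under 5% CO2 before MTT for 4 h.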
# [3] = system: BGC-823 (human gastric cancer cells); test: MTT cancer cell growth inhibition; type: cell-based; settings: Homo sapiens, BGC-823, 72 h, MTT, 72 hours incubation, read-out: GI50 BG
# Outline: as §1
# [4] = system: Bel-7402 (human hepatoma cells); test: MTT cancer cell growth inhibition; type: cell-based; settings: Homo sapiens, Bel-7402, 72 h, MTT, 72 hours incubation, Bel-7402 cells; read-out: GI50 Bel-7402
# Outline: as §1
# [5] = system: DU145 (human prostate cancer cells); test: MTT cancer cell growth inhibition; type: cell-based; settings: Homo sapiens, DU-145, 72 h, MTT, 72 hours incubation, read-out: GI50 Du1
# Outline: as §1
# [6] = system: H1975 (non-small cell lung adenocarcinoma); test: MTT cancer cell growth inhibition; type: cell-based; settings: Homo sapiens, NCI-H1975, 72 h, MTT, 72 hours incubation, H1975 cells; read-out: GI50 H1975
# Outline: as §1
# [7] = system: HCC827 (human non-small cell lung cancer cells); test: MTT cancer cell growth inhibition; type: cell-based; settings: Homo sapiens, HCC827, 72 h, MTT, 72 hours incubation, HCC827 cells; read-out: GI50 HCC827
# Outline: as §1
# [8] = system: HT1080 (human fibrosarcoma cells); test: MTT cancer cell growth inhibition; type: cell-based; settings: Homo sapiens, HT-1080, 72 h, MTT, 72 hours incubation, read-out: GI50 HT1
# Outline: as §1
# [9] = system: Hela (human cervical cancer cells); test: MTT cancer cell growth inhibition; type: cell-based; settings: Homo sapiens, HeLa, 72 h, MTT, 72 hours incubation, read-out: GI50 Hela
# Outline: as §1
# [10] = system: Huh-7 (human hepatoma cells); test: MTT cancer cell growth inhibition; type: cell-based; settings: Homo sapiens, Huh-7, 72 h, MTT, 72 hours incubation, Huh-7 cells; read-out: GI50 Huh-7
# Outline: as §1
# [11] = system: K562 (human leukemia cells); test: MTT cancer cell growth inhibition; type: cell-based; settings: Homo sapiens, K562, 72 h, MTT, 72 hours incubation, K562 cells; read-out: GI50 K562
# Outline: as §1
# [12] = system: KBM-5 (human chronic myelogenous leukemia); test: MTT cancer cell growth inhibition; type: cell-based; settings: Homo sapiens, KBM5, 72 h, MTT, 72 hours incubation, KBM-5 cells; read-out: GI50 KBM-5
# Outline: as §1
# [13] = system: KBM5-T315I (human chronic myelogenous leukemia); test: MTT cancer cell growth inhibition; type: cell-based; settings: Homo sapiens, 72 h, MTT, 72 hours incubation, KBM5-T315I cells; read-out: GI50 KBM5-T315I
# Outline: as §1
# [14] = system: MCF-7 (human breast cancer cells); test: MTT cancer cell growth inhibition; type: cell-based; settings: Homo sapiens, MCF7, 72 h, 72 hours incubation, read-out: GI50 MCF
# Outline: as §1
# [15] = system: MDA-MB-231 (breast cancer cells); test: MTT cancer cell growth inhibition; type: cell-based; settings: Homo sapiens, MDA-MB-231, 72 h, read-out: GI50 MDA-MB-231, MTT, 72 hours incubation, MDA-MB-231 cells
# Outline: as §1
# [16] = system: MOLT-4 (human acute lymphoblastic leukemia cells); test: MTT cancer cell growth inhibition; type: cell-based; settings: Homo sapiens, MOLT-4, 72 h, MTT, 72 hours incubation, read-out: GI50 Mol
# Outline: as §1
# [17] = system: N-87 (human gastric cancer cells); test: MTT cancer cell growth inhibition; type: cell-based; settings: Homo sapiens, 72 h, MTT, 72 hours incubation, N-87 cells; read-out: GI50 N-87
# Outline: as §1
# [18] = system: PANC-1 (Pac-1, human pancreatic cancer cells); test: MTT cancer cell growth inhibition; type: cell-based; settings: Homo sapiens, PANC-1, 72 h, MTT, 72 hours incubation, read-out: GI50 PAN
# Outline: as §1
# [19] = system: SGC-7901 (human gastric cancer cells); test: MTT cancer cell growth inhibition; type: cell-based; settings: Homo sapiens, SGC-7901, 72 h, MTT, 72 hours incubation, SGC-7901 cells; read-out: GI50 SGC-7901
# Outline: as §1
# [20] = system: U937 (human leukemia cells); test: MTT cancer cell growth inhibition; type: cell-based; settings: Homo sapiens, U-937, 72 h, MTT, 72 hours incubation, read-out: GI50 U93
# Outline: as §1
# [21] = system: lncap (prostate cancer cells); test: MTT cancer cell growth inhibition; type: cell-based; settings: Homo sapiens, LNCaP, 72 h, MTT, 72 hours incubation, read-out: GI50 lnca
# Outline: as §1
SMILES,IC50 HDAC7 [1],GI50 ([2]; A549 cells) [nM],GI50 ([3]; BGC-823 cells) [nM],GI50 [4] [nM],GI50 ([5]; DU145 cells) [nM],GI50 [6] [nM],GI50 [7] [nM],GI50 ([8]; HT1080 cells) [nM],GI50 ([9]; Hela cells) [nM],GI50 [10] [nM],GI50 [11] [nM],GI50 [12] [nM],GI50 [13] [nM],GI50 ([14]; MCF-7 cells) [nM],GI50 [15] [nM],GI50 ([16]; MOLT-4 cells) [nM],GI50 [17] [nM],GI50 ([18]; PANC-1 cells) [nM],GI50 [19] [nM],GI50 ([20]; U937 cells) [nM],also measured
C/C=C1\NC(=O)c2ccc(SC)c(n2)CNC(=O)C[C@@H](/C=C/CCS)OC(=O)[C@H](CC)NC1=O [Compound 231],no activity,60,10,58,50,25,77,30,40,48,37,38,57,80,25,50,36,10,11,80,GI50 ([21]; lncap cells): 30 nM
C/C=C1\NC(=O)c2ncc(SC)c(n2)CNC(=O)C[C@@H](/C=C/CCSC(C)=O)OC(=O)[C@H](C)NC1=O [Compound 219],no activity,30,50,82,50,33,39,70,90,49,84,42,39,60,34,80,75,80,63,70,GI50 ([21]; lncap cells): 60 nM
C/C=C1\NC(=O)c2ccc(F)c(n2)CNC(=O)C[C@@H](/C=C/CCS)OC(=O)[C@H](C(C)C)NC1=O [Compound 108],no activity,,,76,,33,93,,,43,59,11,24,,49,,34,,36,,GI50 [2]: 40 nM; GI50 [3]: 20 nM; GI50 [5]: 20 nM; GI50 [8]: 80 nM; GI50 [9]: 70 nM; GI50 [14]: 30 nM; GI50 [16]: 20 nM; GI50 [18]: 80 nM; GI50 [20]: 30 nM; GI50 [21]: 20 nM
C/C=C1\NC(=O)c2cc(F)cc(n2)CNC(=O)C[C@@H](/C=C/CCS)OC(=O)[C@H](C)NC1=O [Compound 113],no activity,,,34,,24,48,,,21,47,36,51,,31,,42,,95,,GI50 [2]: 60 nM; GI50 [3]: 70 nM; GI50 [5]: 50 nM; GI50 [8]: 100 nM; GI50 [9]: 80 nM; GI50 [14]: 50 nM; GI50 [16]: 100 nM; GI50 [18]: 70 nM; GI50 [20]: 60 nM; GI50 [21]: 80 nM
C/C=C1\NC(=O)c2cc(SC)cc(n2)CNC(=O)C[C@@H](/C=C/CCSC(=O)CC)OC(=O)[C@H](C(C)C)NC1=O [Compound 163],no activity,50,60,26,40,45,47,10,10,107,58,75,23,20,58,40,39,70,49,30,GI50 ([21]; lncap cells): 30 nM
C/C=C1\NC(=O)c2cc(F)cc(n2)CNC(=O)C[C@@H](/C=C/CCS)OC(=O)[C@H](CCCCNC(=O)OCC2c3ccccc3-c3ccccc32)NC1=O [Compound 121],no activity,,,26,,28,42,,,45,38,46,23,,75,,23,,33,,GI50 [2]: 210 nM; GI50 [3]: 190 nM; GI50 [5]: 30 nM; GI50 [8]: 70 nM; GI50 [9]: 50 nM; GI50 [14]: 20 nM; GI50 [16]: 30 nM; GI50 [18]: 70 nM; GI50 [20]: 60 nM; GI50 [21]: 110 nM
C/C=C1\NC(=O)c2nc(ccc2SC)CNC(=O)C[C@@H](/C=C/CCS)OC(=O)[C@H](CC)NC1=O [Compound 229],no activity,60,740,37,50,38,77,10,30,28,86,71,53,70,23,30,77,50,91,20,GI50 ([21]; lncap cells): 30 nM

# Source: patent US10065990B2, “Cyclic peptide compound, and preparation method, pharmaceutical composition and use thereof” (HANGZHOU GUANYU BIO-MEDICAL CO., LTD, priority 2013, dated 2018)
